In patent US6262051A, “Fungicidal methoximinomethyldioxazines” (Bayer Aktiengesellschaft, priority 1997, dated 2001):

Key:
Pyricularia oryzae = type: in vivo; conditions: rice, protective; 750 g/ha; 4 days after inoculation; vs untreated control
Plasmopara viticola = assay: Example D: Plasmopara test (grapevine)/protective; type: in vivo; conditions: Plasmopara viticola, 144 h, protective, 6 days after inoculation, vs untreated control, read-out: Efficacy in %
Procedure: Plasmopara test (grapevine)/protective Solvent: 47 parts by weight of acetone Emulsifier: 3 parts by weight of alkylaryl polyglycol ether To produce a suitable preparation of active compound, 1 part by weight of active compound is mixed with the stated amount of solvent and emulsifier, and the concentrate is diluted with water to the desired concentration. To test for protective activity, young plants are sprayed with the preparation of active compound at the stated application rate. […]

HPLC logP = type: physicochemical; conditions: Table 1
[1] = tested on: Erysiphe graminis f.sp. hordei; assay: Example A: Erysiphe test (barley)/protective (N-methyl-pyrrolidone); type: in vivo; conditions: protective, 250 g/ha, 7 days after inoculation, vs untreated control
Procedure: (§1) Erysiphe test (barley)/protective Solvent: 10 parts by weight of N-methyl-pyrrolidone Emulsifier: 0.6 parts by weight of alkylaryl polyglycol ether To produce a suitable preparation of active compound, 1 part by weight of active compound is mixed with the stated amount of solvent and emulsifier, and the concentrate is diluted with water to the desired concentration. To test for protective activity, young plants are sprayed with the preparation of active compound at the stated application rate. After the spray coating has dried on, the plants are dusted with spores of Erysiphe graminis f.sp. hordei. The plants are placed in a greenhouse at a temperature of approximately 20° C. and a relative atmospheric humidity of approximately 80% to promote the development of mildew postules.

[2] = tested on: Erysiphe graminis f.sp. hordei; assay: Example B: Erysiphe test (barley)/curative; type: in vivo; conditions: curative (sprayed 48 hours after inoculation), 250 g/ha, 7 days after inoculation, vs untreated control
Procedure: as §1, with “test (barley)/curative” for “test (barley)/protective”, “0.6 part” for “0.6 parts”, “for curative” for “for protective”, “young plants are dusted with spores of Erysiphe graminis f.sp. hordei. 48 hours after the inoculation, the” for “young”, “rate.” for “rate. After the spray coating has dried on, the plants are dusted with spores of Erysiphe graminis f.sp. hordei.”, “mildew postures.” for “mildew postules.”

[3] = tested on: Erysiphe graminis f.sp. hordei; assay: Example C: Erysiphe test (barley)/protective (N,N-dimethylacetamide); type: in vivo; conditions: protective, solvent N,N-dimethylacetamide, 250 g/ha, 7 days after inoculation, vs untreated control
Procedure: as §1, with “Solvent: 25” for “Solvent: 10”, “of N,N-dimethylacetamide” for “of N-methyl-pyrrolidone”, “0.6 part” for “0.6 parts”

Compound | Efficacy in % (Pyricularia oryzae) | pest or weed control at 100 g/ha (Plasmopara viticola) [%] | chromatographic logP (HPLC logP) | Efficacy in % [1] [%] | Efficacy in % [2] [%] | Efficacy in % [3] [%]
CON=C(C1=NOCCO1)c1ccccc1Oc1nccc(OCC(F)(F)F)n1 [Example 3] | at least 70% | ≤ 100 | 2.6 | 100 | 100 | –
CCCCCCOc1ccnc(Oc2ccccc2C(=NOC)C2=NOCCO2)n1 [Example 13] | – | ≤ 100 | 3.8 | – | – | 100
